Here are results for 1 substance from patent US20060018857A1, “Conditioning surface-active preparation” (priority 2004, published 2006).

Assay [1] in a line: Sensory assessment of skin feel on the treated forearm. The assay is classed as in vivo, human. Particulars: FIG. 1; versus standard co-surfactant Cocamidopropylbetaine; inside of forearm. From the text:
The conditioning properties of two surfactant mixtures were compared with one another by sensory assessment. After the sample composition had been completely absorbed onto the skin, the upper side of the middle and index fingers was slowly drawn without pressing over the treated inside of the forearm. If the skin surface was felt to be without friction, this corresponded to a soft skin feel.
In FIG. 1, marks in the left column favor the standard co-surfactant and marks in the right column favor the inventive co-surfactant for that property. In FIG. 1, square marks indicate a high degree of significance; diamonds indicate a medium degree of significance and circles indicate a low degree of significance (as indicated also by the length of the horizontal lines through the marks).

Assay [2] can be described thus: Half head test, shampoo versus standard. The assay is classed as in vivo, human. How it is done: Each test was conducted on 10 volunteers by trained and skilled people. Each half of the head was prewashed and then treated with the corresponding products. During the test, performance properties, such as skin feel, were evaluated first, followed by such parameters as combability, feel, luster and volume.

Assay [3] can be described thus: Adsorption of sodium lauryl ether sulfate onto skin. The arrangement: species or system human. The conditions noted are these: FIG. 4; versus standard co-surfactant cocoglutamate.
The mark [4] stands for this setting: FIG. 2, versus standard co-surfactant Cocamidopropylbetaine, no added polymer.
Where [5] appears, read: FIG. 3, versus standard co-surfactant Cocamidopropylbetaine and a polymer.

For the substance Laureth-7 Citrate, the “Skin feel (softness), sensory assessment” value in assay [1] is reported as “felt to be softer”. Also, in assay [2] (setting [4]), the “Combability of hair in the dry and wet state” value was “can be combed far better both in the dry and in the wet state”; the “Feel properties of hair” value was “distinctly better”. Moreover, in assay [2] (FIG. 2, versus standard co-surfactant Cocamidopropylbetaine, no added polymer, 10 volunteers), the Conditioning properties entry was “clearly superior conditioning properties”. Also, in assay [2] (setting [5]), the “Combability of dry hair” value was “improved combability of dry hair” and the “Feel of the hair” value is recorded as “more pleasant feel of the hair”. For the same substance, the “Prevention of adsorption of sodium lauryl ether sulfate onto skin” value in assay [3] is “prevented considerably more effectively”.
